Target: Cannabinoid receptor 1 (Taricha granulosa, UniProt Q9PUI7)
Sequence (Q9PUI7 whole entry): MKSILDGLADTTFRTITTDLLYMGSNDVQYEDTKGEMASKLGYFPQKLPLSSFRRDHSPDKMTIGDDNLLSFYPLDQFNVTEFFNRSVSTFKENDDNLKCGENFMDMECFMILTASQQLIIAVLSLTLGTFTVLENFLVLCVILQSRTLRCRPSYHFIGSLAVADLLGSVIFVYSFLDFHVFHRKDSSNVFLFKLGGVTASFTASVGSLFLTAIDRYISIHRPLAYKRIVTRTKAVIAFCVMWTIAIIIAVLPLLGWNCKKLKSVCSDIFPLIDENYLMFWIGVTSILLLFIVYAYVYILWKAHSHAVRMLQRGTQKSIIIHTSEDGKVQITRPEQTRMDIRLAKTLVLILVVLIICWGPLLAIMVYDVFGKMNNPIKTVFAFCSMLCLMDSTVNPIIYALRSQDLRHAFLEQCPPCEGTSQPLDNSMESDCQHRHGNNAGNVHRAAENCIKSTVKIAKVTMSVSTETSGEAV

| Compound | Ki [nM] |
| --- | --- |
| CCCCC/C=C\C/C=C\C/C=C\C/C=C\CCCCCC(=O)NCCO | 2400 |
| CCCCCCC(C)(C)c1ccc([C@H]2C[C@@H](O)CC[C@@H]2CCCO)c(O)c1 [CP-56667 [(+)-AC],XV] | 3.8 |
| CC(=O)Oc1cc(OC(C)CCCc2ccccc2)cc2c1C1CC(O)CCC1C(C)N2 (centres undefined) [NSC_107822] | 13 |
| Cc1c(C(=O)c2cccc3ccccc23)c2cccc3c2n1[C@H](CN1CCOCC1)CO3 [WIN55212-2] | 25.7 |

From BindingDB's records for doi:10.1046/j.1471-4159.2000.0750413.x (Oregon State University, 2000)
